Like-named read-outs stand apart in the source and are kept apart here.

One experiment relates to OCI-AML-2. Put plainly: Cell proliferation assay (MTS). Format: cell-based, human.
The target of the next experiment is T1, G9a (Homo sapiens, UniProt Q96KQ7).
T1 sequence (Q96KQ7 1-1210): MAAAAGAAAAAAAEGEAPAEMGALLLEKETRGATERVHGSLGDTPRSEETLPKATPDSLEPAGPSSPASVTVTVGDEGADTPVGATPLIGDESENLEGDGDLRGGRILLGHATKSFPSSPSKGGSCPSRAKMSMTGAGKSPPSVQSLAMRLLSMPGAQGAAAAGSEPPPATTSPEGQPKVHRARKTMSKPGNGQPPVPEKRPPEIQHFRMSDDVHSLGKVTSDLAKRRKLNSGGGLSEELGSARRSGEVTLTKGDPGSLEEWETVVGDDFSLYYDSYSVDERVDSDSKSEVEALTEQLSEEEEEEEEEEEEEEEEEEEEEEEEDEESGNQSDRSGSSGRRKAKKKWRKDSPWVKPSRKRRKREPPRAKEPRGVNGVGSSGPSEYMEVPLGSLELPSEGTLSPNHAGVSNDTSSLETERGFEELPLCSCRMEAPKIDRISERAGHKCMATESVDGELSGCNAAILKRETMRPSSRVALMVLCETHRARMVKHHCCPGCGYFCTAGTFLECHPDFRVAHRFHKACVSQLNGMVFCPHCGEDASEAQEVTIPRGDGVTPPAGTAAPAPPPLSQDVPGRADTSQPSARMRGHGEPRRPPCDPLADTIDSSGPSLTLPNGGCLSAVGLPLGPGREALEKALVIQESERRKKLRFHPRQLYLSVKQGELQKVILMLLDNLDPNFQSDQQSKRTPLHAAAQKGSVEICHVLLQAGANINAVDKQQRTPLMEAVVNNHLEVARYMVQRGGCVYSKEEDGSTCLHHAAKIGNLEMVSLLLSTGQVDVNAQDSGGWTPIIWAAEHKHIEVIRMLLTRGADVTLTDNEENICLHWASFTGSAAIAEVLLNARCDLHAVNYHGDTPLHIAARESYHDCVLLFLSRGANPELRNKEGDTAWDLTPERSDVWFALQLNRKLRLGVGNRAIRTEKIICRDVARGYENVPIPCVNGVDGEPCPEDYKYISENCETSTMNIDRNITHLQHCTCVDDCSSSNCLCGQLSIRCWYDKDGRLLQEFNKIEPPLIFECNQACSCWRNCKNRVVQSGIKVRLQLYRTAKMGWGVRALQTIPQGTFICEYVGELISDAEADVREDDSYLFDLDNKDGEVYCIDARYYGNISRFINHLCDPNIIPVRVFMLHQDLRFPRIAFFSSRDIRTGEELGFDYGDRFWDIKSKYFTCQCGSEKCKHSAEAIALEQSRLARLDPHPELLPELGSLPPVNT
Description: G9a enzyme activity assay (TR-FRET). Format: biochemical. The following applies: for IC50: TR-FRET, internally determined.

The test system of another experiment is CEMO-1. Put plainly: Cell proliferation assay (MTS). Format: cell-based, human. Particulars: 48 h.
The next experiment relates to LAL-CUN-2. Put plainly: Cell proliferation assay (MTS). Particulars: Homo sapiens, 48 h. Format: cell-based.
The test system of the next experiment is OCI-Ly3. Put plainly: Cell proliferation assay (MTS). Format: cell-based. Particulars: Homo sapiens.
The test system of another experiment is OCI-Ly10. Description: Cell proliferation assay (MTS). Format: cell-based, human. The following applies: Homo sapiens, OCI-Ly10, 48 h.
In the next experiment the test system is MV4-11. Description: Cell proliferation assay (MTS). The following applies: Homo sapiens. Format: cell-based.
In another experiment the target is T2, human DNMT1 enzyme (Homo sapiens, UniProt P26358).
T2 construct: purchased
T2 sequence (P26358 whole entry): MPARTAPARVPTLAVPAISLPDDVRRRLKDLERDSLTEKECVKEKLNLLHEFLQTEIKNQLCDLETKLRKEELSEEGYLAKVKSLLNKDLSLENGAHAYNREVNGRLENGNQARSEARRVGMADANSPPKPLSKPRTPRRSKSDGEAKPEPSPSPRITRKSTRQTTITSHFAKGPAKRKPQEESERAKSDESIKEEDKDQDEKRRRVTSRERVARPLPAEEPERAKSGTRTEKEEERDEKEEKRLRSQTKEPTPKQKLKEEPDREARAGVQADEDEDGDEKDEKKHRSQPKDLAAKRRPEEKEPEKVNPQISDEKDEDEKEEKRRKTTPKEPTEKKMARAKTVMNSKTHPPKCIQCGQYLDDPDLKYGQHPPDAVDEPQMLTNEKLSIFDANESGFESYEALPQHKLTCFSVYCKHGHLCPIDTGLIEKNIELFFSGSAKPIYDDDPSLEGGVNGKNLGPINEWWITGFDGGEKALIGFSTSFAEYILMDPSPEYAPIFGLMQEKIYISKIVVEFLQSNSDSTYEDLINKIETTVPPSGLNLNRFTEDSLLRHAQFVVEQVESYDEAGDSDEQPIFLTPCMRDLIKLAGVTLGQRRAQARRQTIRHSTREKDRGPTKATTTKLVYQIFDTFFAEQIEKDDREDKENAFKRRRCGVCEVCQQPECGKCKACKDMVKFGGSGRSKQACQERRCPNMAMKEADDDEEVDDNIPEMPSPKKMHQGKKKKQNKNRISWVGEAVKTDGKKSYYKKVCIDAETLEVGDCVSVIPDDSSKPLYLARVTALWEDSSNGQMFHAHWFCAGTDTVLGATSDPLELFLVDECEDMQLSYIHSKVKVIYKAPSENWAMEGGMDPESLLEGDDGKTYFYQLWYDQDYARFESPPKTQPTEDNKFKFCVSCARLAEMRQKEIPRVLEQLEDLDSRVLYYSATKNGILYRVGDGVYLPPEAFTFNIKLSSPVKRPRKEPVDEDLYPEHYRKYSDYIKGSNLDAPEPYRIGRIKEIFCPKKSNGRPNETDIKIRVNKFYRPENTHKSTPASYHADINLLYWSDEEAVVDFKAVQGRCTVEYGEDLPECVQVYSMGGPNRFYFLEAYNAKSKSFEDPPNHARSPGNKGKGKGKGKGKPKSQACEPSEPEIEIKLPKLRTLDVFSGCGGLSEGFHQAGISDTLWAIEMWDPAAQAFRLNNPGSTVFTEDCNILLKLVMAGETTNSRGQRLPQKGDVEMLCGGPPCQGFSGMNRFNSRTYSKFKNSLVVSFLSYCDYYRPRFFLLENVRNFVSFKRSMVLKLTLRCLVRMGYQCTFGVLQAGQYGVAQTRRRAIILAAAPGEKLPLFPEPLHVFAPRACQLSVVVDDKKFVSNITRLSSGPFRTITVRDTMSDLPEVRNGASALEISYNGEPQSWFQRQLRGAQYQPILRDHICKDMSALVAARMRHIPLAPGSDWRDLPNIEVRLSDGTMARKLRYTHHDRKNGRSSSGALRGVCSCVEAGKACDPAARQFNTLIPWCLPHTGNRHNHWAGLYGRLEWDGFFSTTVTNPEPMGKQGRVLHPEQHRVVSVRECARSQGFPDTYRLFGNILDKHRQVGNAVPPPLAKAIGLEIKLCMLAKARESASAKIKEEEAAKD
Put plainly: DNMT1 enzyme activity assay (TR-FRET). Format: biochemical. The following applies: internally determined. For orientation: TR-FRET usually uses a lanthanide donor and a delayed reading to cut background.

In experiment [1] the target is T3, DNMT1 catalytic domain (501-1632) (Homo sapiens, UniProt P26358).
T3 construct: Flag (N); purchased
T3 sequence (P26358 485-1616): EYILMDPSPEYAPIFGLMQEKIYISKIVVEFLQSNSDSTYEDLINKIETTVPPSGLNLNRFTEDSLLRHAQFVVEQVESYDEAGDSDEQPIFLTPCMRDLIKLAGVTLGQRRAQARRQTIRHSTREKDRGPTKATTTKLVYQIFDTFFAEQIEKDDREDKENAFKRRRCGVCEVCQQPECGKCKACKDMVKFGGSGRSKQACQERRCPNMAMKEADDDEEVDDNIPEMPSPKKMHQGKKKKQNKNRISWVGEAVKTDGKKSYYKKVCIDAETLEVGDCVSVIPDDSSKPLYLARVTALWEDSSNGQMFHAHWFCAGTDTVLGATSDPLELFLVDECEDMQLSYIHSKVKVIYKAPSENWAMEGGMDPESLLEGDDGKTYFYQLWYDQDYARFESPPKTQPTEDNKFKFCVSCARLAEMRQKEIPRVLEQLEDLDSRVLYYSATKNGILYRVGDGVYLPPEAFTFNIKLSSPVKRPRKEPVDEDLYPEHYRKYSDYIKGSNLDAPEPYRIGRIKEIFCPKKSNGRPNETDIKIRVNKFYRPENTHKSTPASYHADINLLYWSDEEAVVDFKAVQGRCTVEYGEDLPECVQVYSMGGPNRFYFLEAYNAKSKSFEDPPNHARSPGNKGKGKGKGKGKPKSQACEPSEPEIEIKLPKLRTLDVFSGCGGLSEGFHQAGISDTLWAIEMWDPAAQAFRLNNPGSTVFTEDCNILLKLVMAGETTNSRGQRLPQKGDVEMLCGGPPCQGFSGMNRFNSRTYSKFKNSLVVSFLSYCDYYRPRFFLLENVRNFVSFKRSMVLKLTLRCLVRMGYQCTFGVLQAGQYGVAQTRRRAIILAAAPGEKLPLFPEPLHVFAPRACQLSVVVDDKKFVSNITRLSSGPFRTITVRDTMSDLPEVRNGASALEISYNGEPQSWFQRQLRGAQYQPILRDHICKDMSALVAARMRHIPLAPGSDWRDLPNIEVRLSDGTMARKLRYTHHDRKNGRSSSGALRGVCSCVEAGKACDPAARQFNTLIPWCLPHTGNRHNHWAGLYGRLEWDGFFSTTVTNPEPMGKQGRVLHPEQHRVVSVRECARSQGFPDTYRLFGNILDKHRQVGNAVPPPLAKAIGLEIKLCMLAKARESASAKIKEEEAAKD
Description: SPR on immobilised DNMT1. Format: binding. An excerpt:
We have indeed tried to measure the affinity of the reported compounds for DNMT1 using SPR. For that, we attempted SPR experiments using the two different DNMT1 protein constructs we can purchase: A full length DNMT1 with an N-terminal GST fusion, and a shorter construct containing the […]
First, we immobilized GST-tagged full length DNMT1 to a chip containing anti-GST antibody, but the amount immobilized was only 8% of the GST Ab chip capacity, and insufficient to detect binding of the ca. 500 Da compounds, presumably due to steric impediments resulting from the large size (dimer of 209 kDa monomers) of the GST-DNMT1 fusion protein. The theoretical SPR signal expected for the compounds binding with a 1:1 stoichiometry to the amount of protein immobilized (2300 RU) is only 5 response units (RU), with the precision of our BiacoreX100 SPR instrument typically being 1- […]
reference channels at 5 µM, indicating unspecific binding to the chip surface/Ab/GST, and very likely masking their possible direct binding to DNMT1. Compound injections at 200 µM […]
differential increase in the DNMT1 channel that indicates non-reversible binding with a high stoichiometry (responses of 81 and 65 RU, respectively; with 5 RU expected for a 1:1 binding), likely resulting from aggregation of the compounds at 200 µM concentration in the DNMT1 channel. […]
properly measured. […]

[2] abbreviates: Homo sapiens, ALL, read-out: GI50.
Setting [3] is: Homo sapiens, CEMO-1, 48 h, as used in apoptosis assay, read-out: GI50.
Setting [4] is: OCI-Ly3, ABC-DLBCL, 48 h, read-out: GI50.
[5] abbreviates: ABC-DLBCL, 48 h, read-out: GI50.
Setting [6] is: MV4-11, AML, 48 h, read-out: GI50.
The mark [7] stands for this setting: Homo sapiens, OCI-AML2, AML, 48 h, read-out: GI50.

Usually GI50 stands for the concentration that inhibits growth by half. As for `COc1cc2c(cc1OCCCN1CCCC1)N=C(N)C21CCC1` [A-366], in the experiment on OCI-AML-2 (OCI-AML-2, combination study set-up, read-out: GI50), the GI50 was more than 50 µM.
By IC50 is commonly meant the concentration that inhibits the measured activity by half. A higher IC50 goes with weaker potency. With `Nc1ncn([C@@H]2O[C@H](CO)[C@@H](O)[C@H]2O)c(=O)n1` [Azacitidine, azacitidine], the IC50 against G9a was more than 10 µM. Besides, the GI50 with CEMO-1 (setting [2]) is 3.96 µM; in the experiment on CEMO-1 (setting [3]), 7.7 µM; in the experiment on LAL-CUN-2 (ALL, read-out: GI50), 21.2 µM; in the experiment with OCI-Ly3 (setting [4]), 1.93 µM; in the experiment with OCI-Ly10 (setting [5]), 2.6 µM; in the experiment on MV4-11 (setting [6]) it was 5.56 µM. For the same compound, the GI50 in the experiment on OCI-AML-2 (setting [7]) is more than 10 µM.
On human DNMT1 enzyme, `COc1cc2nc(N3CCCN(C)CC3)nc(NC3CCN(Cc4ccccc4)CC3)c2cc1OC` [BIX-01294] registered an IC50 of more than 10 µM. In addition, the GI50 was 2.91 µM with CEMO-1 (setting [2]); 2.9 µM in the experiment on CEMO-1 (setting [3]); 5.94 µM with LAL-CUN-2 (ALL, read-out: GI50); more than 4 µM in the experiment with OCI-Ly3 (setting [4]); more than 4 µM in the experiment on OCI-Ly10 (setting [5]); 11.9 µM in the experiment on MV4-11 (setting [6]). Further, the GI50 in the experiment on OCI-AML-2 (setting [7]) was determined as 6.32 µM.
Consider `COc1cc2c(OC3CCN(C)CC3)cc(-c3ccc(C)o3)nc2cc1OCCCN1CCCC1` [CM-1021, 6-methoxy-2-(5-methyl-2-furyl)-4-[(1-methyl-4-piperidyl)oxy]-7-(3-pyrrolidin-1-ylpropoxy)quinoline], for which the “reduction of primary activity (4-oxyquinoline vs 4-aminoquinoline)” value at G9a (secondary amine replaced by ether) was “more than 2.5 log units”.
For the compound `Nc1ncn([C@H]2C[C@H](O)[C@@H](CO)O2)c(=O)n1` [Decitabine, decitabine], the IC50 on G9a was more than 10 µM. Moreover, the GI50 was 0.49 µM with CEMO-1 (ALL); 0.506 µM with CEMO-1 (Homo sapiens, ALL); more than 22.4 µM in the experiment on LAL-CUN-2; more than 4 µM in the experiment with OCI-Ly3 (OCI-Ly3, 48 h); more than 4 µM in the experiment on OCI-Ly10; more than 50 µM with MV4-11 (MV4-11, 48 h). In the experiment with OCI-AML-2 (Homo sapiens, OCI-AML2, 48 h), the GI50 is more than 10 µM.
In general, Kd refers to the equilibrium constant for the complex coming apart. In experiment [1], `C[S+](CC[C@H](N)C(=O)[O-])C[C@H]1O[C@@H](n2cnc3c(N)ncnc32)[C@H](O)[C@@H]1O` (stereo partly drawn) [SAM, S-adenosyl-L-methionine] showed a Kd of 15 to 20 µM.
Consider `COc1cc2c(NC3CCN(C(C)C)CC3)nc(C3CCCCC3)nc2cc1OCCCN1CCCC1` [UNC-0638], for which the GI50 in the experiment with CEMO-1 (setting [2]) is 4.73 µM; in the experiment on CEMO-1 (setting [3]) it was 4.7 µM; in the experiment on LAL-CUN-2 (ALL, read-out: GI50), 5.18 µM; with OCI-Ly3 (setting [4]), more than 4 µM; with OCI-Ly10 (setting [5]), more than 4 µM; with MV4-11 (setting [6]) it was 12 µM. Also, the concentration for 50% growth inhibition (GI50) in the experiment with OCI-AML-2 (setting [7]) was 7.33 µM.
